According to US11999964B2, “Synthetic mammalian signaling circuits for robust cell population control” (California Institute of Technology, priority 2020, dated 2024):

Legend:
Type in all cases: cell-based, Hamster
[1] = tested on: cheaters from the negative feedback condition; experiment: AP1903 killing of cheaters from the negative feedback condition; details: 50 nM AP1903, two days, even in the presence of NAA
From the text: FIGS. 12A-12C depict non-limiting exemplary data showing the paradoxical circuit allows mutationally robust population control. (FIG. 12A) Cell lines evolved under paradoxical conditions are phenotypically different from cheaters evolved under negative feedback. Each dot represents one culture. Cells evolved under the negative feedback conditions form a tight cluster, which is fitted with a 2-D gaussian to show the 95 percentile (orange dashed ellipse). […] (FIG. 12B) Under paradoxical, but not negative feedback, conditions, mutations that reduce auxin sensing lead to apoptosis in cheaters (red inhibitory arrow), preventing unregulated growth and mutational escape. […] Cells were incubated with different levels of NAA for 6 hours, and then 50 nM of AP1903 was added (except in controls) for another two days. Confluencies were measured and normalized to the no AP1903 control (n=3).

[2] = target: T1, mCherry-AID-Blast R (UniProt P93830+Q7XVM8, DEL133-229); experiment: Auxin regulation of mCherry-AID-BlastR fluorescence in Receiver cells; details: Receiver CHO-K1 cells, two days of treatment, Michaelis-Menten fit; read-out: EC50, reduction of mCherry fluorescence
T1 construct: expressed in transfected cells; 'Receiver' line
From the text: (§1) FIGS. 1A-1D depict non-limiting exemplary embodiments and data showing the plant hormone auxin allows private-channel mammalian cell-cell communication. […] Middle: Engineered cells that can send and receive the signal simultaneously can respond to their own population size. Right: coupling the sending-receiving function with cell survival in a negative feedback can enable population control. (FIG. 1B) Auxin Receiver cells constitutively express a fluorescent target fusion protein, mCherry-AID-BlastR, as well as the F-box protein osTIR1. […] The response of mCherry fluorescence to two different species of auxin (IAA and NAA) was measured after two days of treatment (dots). […] Cells were counted by flow cytometry (n=3, error bar=standard deviation). […]
To establish and characterize auxin regulation of mammalian cell growth, auxin sensing was coupled to drug resistance and fluorescence. Specifically, blasticidin S deaminase (Blast R), whose protein product is necessary for survival in the presence of blasticidin, was fused to AID and mCherry domains, allowing auxin-dependent degradation and fluorescent readout of protein concentration, respectively. […]
To fit the mCherry's response curve to auxin and population (FIG. 1C, FIGS. 3A and 3B; FIGS. 7A and 7B), it was assumed the log of fluorescence (F) follows an inverted Michaelis-Menten's equation as follow: […]

[3] = tested on: Receiver cell line (CHO-K1 cells); experiment: Receiver cell survival with IAA and blasticidin; details: IAA added to media containing blasticidin; four days; dose-dependent
From the text: as §1
Flow cytometry by trypsinizing 0.25% trypsin-EDTA (GIBCO) for 1 min at room temperature. […] Cells were then filtered through a 40 μm cell strainer and analyzed by flow cytometry (MACSQuant VYB, Miltenyi or CytoFLEX, Beckman Coulter). […] All fluorescence data were acquired as the median value of the gated population. For counting cells, 1000 CountBright beads (Life Technologies) were spiked into the sample before filtering, gated out by their fluorescence in analysis and used to estimate cell number in each sample.

[4] = tested on: parental cells; experiment: Parental cells cultured with IAA and blasticidin (pilot); details: cultured in the presence of IAA and blasticidin
Procedure: FIGS. 14A-14D depict non-limiting exemplary data showing simple negative feedback enables cell density-dependent killing. (FIGS. 14A-14B) Long-term culture traces under 50 μg/ml and 100 μg/ml blasticidin conditions. Experimental setups are the same as FIG. 11B. […] A cell line collected from the experiment described in (FIG. 14D) was cultured, in parallel with the parental line, with different IAA and blasticidin combinations for 4 days. Survival rates were normalized to the parental line, and each bar is from a triplet. […] Cells were seeded into a 24-well imaging plate with 50 μg/ml of blasticidin solely or with 100 μM IAA or IAM, and no cells survived the combined IAA and blasticidin treatment. Each trace reflects an average of 12 positions in a sample well.
First, resistance mutations occurred in separately maintained, long-term cultures, and therefore could not spread from one culture to another. […] While sensing mutations are likely responsible at least in part for the mutant growth advantage, their specific effects in a parental background was not characterized. […] However, as described herein, a paradoxical circuit designs provide robust population control.

T1 sequence (P93830 65-132 limits assumed, stated change not applied): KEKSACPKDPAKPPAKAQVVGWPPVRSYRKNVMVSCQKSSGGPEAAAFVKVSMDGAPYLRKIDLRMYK
T1 sequence (Q7XVM8 whole entry, stated change not applied): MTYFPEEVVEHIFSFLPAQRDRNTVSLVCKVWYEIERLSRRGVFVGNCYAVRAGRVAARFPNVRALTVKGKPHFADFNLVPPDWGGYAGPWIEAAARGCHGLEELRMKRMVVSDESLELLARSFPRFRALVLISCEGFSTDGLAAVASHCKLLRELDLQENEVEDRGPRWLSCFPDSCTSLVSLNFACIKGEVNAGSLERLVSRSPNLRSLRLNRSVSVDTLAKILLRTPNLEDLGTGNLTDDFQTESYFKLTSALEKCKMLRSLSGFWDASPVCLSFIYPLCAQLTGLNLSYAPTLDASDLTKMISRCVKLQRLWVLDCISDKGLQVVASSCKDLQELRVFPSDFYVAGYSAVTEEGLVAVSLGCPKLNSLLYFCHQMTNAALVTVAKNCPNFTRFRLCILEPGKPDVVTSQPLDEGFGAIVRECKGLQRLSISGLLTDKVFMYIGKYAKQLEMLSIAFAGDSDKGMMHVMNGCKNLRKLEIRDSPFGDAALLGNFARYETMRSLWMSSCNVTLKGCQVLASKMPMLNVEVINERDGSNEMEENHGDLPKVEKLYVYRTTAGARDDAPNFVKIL
T1 sequence (Q9WTX5 whole entry partner): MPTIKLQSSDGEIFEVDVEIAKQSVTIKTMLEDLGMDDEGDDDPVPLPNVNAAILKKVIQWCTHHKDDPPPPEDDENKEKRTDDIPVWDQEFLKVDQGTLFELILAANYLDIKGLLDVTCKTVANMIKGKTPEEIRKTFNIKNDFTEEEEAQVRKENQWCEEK

Row | SMILES | Effect of iCasp9 activation by AP1903 on cheaters [1] | EC50 [2] [nM] | Effect on cell survival [3] | Time to death of parental cells [4] [days]
1 | CC[C@H](C(=O)N1CCCC[C@H]1C(=O)O[C@H](CCc1ccc(OC)c(OC)c1)c1cccc(OCC(=O)NCCNC(=O)COc2cccc([C@@H](CCc3ccc(OC)c(OC)c3)OC(=O)[C@@H]3CCCCN3C(=O)[C@@H](CC)c3cc(OC)c(OC)c(OC)c3)c2)c1)c1cc(OC)c(OC)c(OC)c1 [AP1903] | kills cheaters | – | – | –
2 | O=C(O)Cc1c[nH]c2ccccc12 [IAA, indole-3-acetic acid] | – | 110 | inhibit cell survival | ≤ 3
